This note sets out measurements from the supplement of paper PMC8967900.

Some test systems named below: SUP-B15; 380; P12-ICHIKAWA
What all share (assay): selective drug sensitivity score (sDSS, relative to normal bone marrow) (sDSS (score)); higher = more potent and effective on the cell line relative to normal bone marrow cells
Common to all, as to conditions: 72 h
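Further: ALL cell lines in 384-well plates, five doses spanning 10,000-fold, each plate scaled between vehicle and 100 µmol/L benzalkonium chloride controls, sDSS an adapted area-under-curve metric.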

`O=C(/C=C/c1cccnc1)NCCCCC1CCN(C(=O)c2ccccc2)CC1` [Daporinad] (top concentration 1000 nM): the “selective drug sensitivity score” value stood at 19.4 with SUP-B15, 14.7 in the experiment with 380 and 9.16 in the experiment with P12-ICHIKAWA.
For `Nc1nc(NC2CC2)cc(-c2cccc(Cl)c2Cl)n1` [TH588] (top concentration 25000 nM), the “selective drug sensitivity score” value with SUP-B15 is 7.62; in the experiment on 380, -0.58; in the experiment with P12-ICHIKAWA, 3.72.
Take `Cc1ccc(Nc2nccc(N(C)c3ccc4c(C)n(C)nc4c3)n2)cc1S(N)(=O)=O` [Pazopanib] (top concentration 10000 nM): the “selective drug sensitivity score” value with SUP-B15 is -0.96; in the experiment with 380, -0.86; in the experiment with P12-ICHIKAWA it was 1.04.
The like results for `CN(C)Cc1ccc(S(=O)(=O)n2ccc(/C=C/C(=O)NO)c2)cc1` [Resminostat] (top concentration 10000 nM) were, in that order, 9.74, 7.44 and 7.34.
Turning to `Cc1c(-c2ccc(N3CCc4cccc(C(=O)Nc5nc6ccccc6s5)c4C3)nc2C(=O)O)cnn1CC12CC3CC(CC(C3)C1)C2` (top concentration 1000 nM), the “selective drug sensitivity score” value in the experiment on SUP-B15 is 9.34; in the experiment on 380, 3.94; with P12-ICHIKAWA, 27.7.
The like results for `C=CC(=O)Nc1cc2c(Nc3ccc(F)c(Cl)c3)ncnc2cc1OCCCN1CCOCC1` [Canertinib] (top concentration 10000 nM) were, in that order, 3.16, 3.16 and -1.54.
With `Cc1cc(Nc2cc(CN3CCOCC3)c3nc(C)c(Cc4ccc(Cl)cc4F)n3n2)n[nH]1` [Gandotinib] (top concentration 10000 nM), the “selective drug sensitivity score” value in the experiment on SUP-B15 is 7.78; with 380 it was -8.02; in the experiment on P12-ICHIKAWA it was -0.62.
In the case of `COC(=O)C[C@](O)(CCCC(C)(C)O)C(=O)O[C@@H]1C(OC)=C[C@]23CCCN2CCc2cc4c(cc2[C@H]13)OCO4` [Omacetaxine] (top concentration 10000 nM), the “selective drug sensitivity score” value in the experiment on SUP-B15 turned out to be 7.82; with 380, 14.1; in the experiment on P12-ICHIKAWA, 0.82.
For `Cc1ccc(NC(=O)c2ccc(CN3CCN(C)CC3)cc2)cc1Nc1nccc(-c2cccnc2)n1` [Imatinib] (top concentration 10000 nM), the “selective drug sensitivity score” value in the experiment on SUP-B15 was 17.4; with 380, -0.44; in the experiment on P12-ICHIKAWA it was 0.16.
The like results for `CC(C)C[C@@H](C(=O)N[C@H](C(=O)OC1CCCC1)c1ccccc1)[C@H](O)C(=O)NO` [Tosedostat] (top concentration 10000 nM) were, in that order, 11, 5.76 and -0.24.
Turning to `CNC(=O)c1cc(Oc2ccc(NC(=O)Nc3ccc(Cl)c(C(F)(F)F)c3)c(F)c2)ccn1` [Regorafenib] (top concentration 10000 nM), the “selective drug sensitivity score” value is 9.14 in the experiment on SUP-B15, 8.54 in the experiment on 380 and 3.24 in the experiment on P12-ICHIKAWA.
On to `CC(C)NC[C@@H](C(=O)N1CCN(c2ncnc3c2[C@H](C)C[C@H]3O)CC1)c1ccc(Cl)cc1` [Ipatasertib] (top concentration 10000 nM), for which the “selective drug sensitivity score” value in the experiment on SUP-B15 stood at 0.8; with 380, 7; in the experiment with P12-ICHIKAWA it was 2.9.
The like results for `S=C(NCc1ccc2c(c1)OCO2)N1CCN(c2ncnc3c2oc2ccccc23)CC1` [Amuvatinib] (top concentration 10000 nM) were, in that order, 5.46, 3.76 and 7.46.
The like results for `CC(C)(C)c1cc(NC(=O)Nc2ccc(-c3cn4c(n3)sc3cc(OCCN5CCOCC5)ccc34)cc2)no1` [Quizartinib] (top concentration 1000 nM) were, in that order, 0.38, -1.52 and 0.18.
The like results for `Cc1cn(-c2cc(NC(=O)c3ccc(C)c(Nc4nccc(-c5cccnc5)n4)c3)cc(C(F)(F)F)c2)cn1` [Nilotinib] (top concentration 10000 nM) were, in that order, 31.6, 6.1 and 0.6.
On to `Nc1nc2[nH]cc(CCc3ccc(C(=O)N[C@@H](CCC(=O)O)C(=O)O)cc3)c2c(=O)[nH]1` [Pemetrexed] (top concentration 10000 nM), for which the “selective drug sensitivity score” value was determined as 28 in the experiment with SUP-B15, 22.6 in the experiment with 380 and 26.1 in the experiment with P12-ICHIKAWA.
The like results for `CN(C)c1cc2c(cc1Sc1nc3c(N)nccc3n1CCNCC(C)(C)C)OCO2` [CUDC-305] (top concentration 10000 nM) were, in that order, 3.22, 3.22 and 2.82.
Consider `C[C@]12C=CC(=O)C=C1CC[C@@H]1[C@@H]2[C@@H](O)C[C@@]2(C)[C@H]1CC[C@]2(O)C(=O)CO` [Prednisolone] (top concentration 10000 nM), for which the “selective drug sensitivity score” value was 28.1 in the experiment with SUP-B15, 23.8 in the experiment on 380 and 14.6 in the experiment with P12-ICHIKAWA.
For the compound `CCS(=O)(=O)c1cccc(-c2cc(C(=O)NC3CCN(C)CC3)c(C)c3[nH]c4ncc(C)cc4c23)c1` [TAK-901] (top concentration 1000 nM), the “selective drug sensitivity score” value with SUP-B15 stood at 11; in the experiment with 380, 10.4; in the experiment on P12-ICHIKAWA, 12.3.
The like results for `Cc1cc(Nc2cc(N3CCN(C)CC3)nc(/C=C/c3ccccc3)n2)n[nH]1` [ENMD-2076] (top concentration 10000 nM) were, in that order, 4.74, 2.54 and 8.24.
On to `Cc1ccc(C(=O)Nc2ccc(CN3CCN(C)CC3)c(C(F)(F)F)c2)cc1C#Cc1cnc2cccnn12` [Ponatinib] (top concentration 1000 nM), for which the “selective drug sensitivity score” value in the experiment with SUP-B15 is 31.8; with 380, 9.52; in the experiment with P12-ICHIKAWA, 1.22.
As for `CS(=O)(=O)c1ccc(-c2cnc(N)c(C(=O)Nc3ccccc3)n2)cc1` [VE-821] (top concentration 10000 nM), the “selective drug sensitivity score” value amounted to 6.94 with SUP-B15, 2.54 in the experiment on 380 and 3.14 with P12-ICHIKAWA.
As for `Cc1cccc(-c2[nH]c(CNc3ccccc3F)nc2-c2ccc3ncnn3c2)n1` [Vactosertib (TEW-7197)] (top concentration 2500 nM), the “selective drug sensitivity score” value in the experiment with SUP-B15 was 9; with 380 it was 0.8; in the experiment with P12-ICHIKAWA, -0.5.
The like results for `Cc1cnc(Nc2ccc(OCCN3CCCC3)cc2)nc1Nc1cccc(S(=O)(=O)NC(C)(C)C)c1` [Fedratinib] (top concentration 10000 nM) were, in that order, -0.66, -6.96 and -2.56.
The like results for `COc1cccc2c1c(O)c(C(=O)N(C)c1ccc(C(F)(F)F)cc1)c(=O)n2C` [Tasquinimod] (top concentration 10000 nM) were, in that order, 2.78, -0.42 and -0.42.
Turning to `Cc1nn(C)c(COc2ccc(N3CCN(S(=O)(=O)N(C)C)CC3)cc2)c1-c1cccc2c(CCCOc3cccc4ccccc34)c(C(=O)O)n(CCN3CCOCC3)c12` (top concentration 50000 nM), the “selective drug sensitivity score” value with SUP-B15 stood at 8.16; in the experiment with 380 it was 0.86; in the experiment with P12-ICHIKAWA, 6.76.
The like results for `Cc1cc([C@@H](C)Nc2ccccc2C(=O)O)c2nc(N3CCOCC3)cc(=O)n2c1` [AZD-6482] (top concentration 2500 nM) were, in that order, 2.22, 4.72 and 0.42.
Regarding `COc1cc2ncnc(Oc3cccc(NC(=O)Nc4cc(C(C)(C)C(F)(F)F)on4)c3)c2cc1OC` (top concentration 10000 nM), the “selective drug sensitivity score” value in the experiment on SUP-B15 was determined as 28.4; in the experiment with 380, 0; in the experiment with P12-ICHIKAWA, 5.9.
Turning to `NC(=O)c1cccc2cn(-c3ccc(C4CCCNC4)cc3)nc12` (stereo not given) [Niraparib] (top concentration 10000 nM), the “selective drug sensitivity score” value in the experiment with SUP-B15 was 17.2; in the experiment with 380 it was 15.8; with P12-ICHIKAWA, 0.68.
For `CC(=O)OC[C@H]1O[C@@H]([S-])[C@H](OC(C)=O)[C@@H](OC(C)=O)[C@@H]1OC(C)=O.CCP(CC)CC.[Au+]` [Auranofin] (top concentration 2500 nM), the “selective drug sensitivity score” value in the experiment with SUP-B15 was 12.6; with 380, 12.3; in the experiment on P12-ICHIKAWA it was -0.96.
The like results for `CCC/C=C/C=C/C(=O)O[C@H]1/C(=C/C(=O)OC)C[C@H]2C[C@H]([C@@H](C)O)OC(=O)C[C@H](O)C[C@@H]3C[C@H](OC(C)=O)C(C)(C)[C@](O)(C[C@@H]4C/C(=C/C(=O)OC)C[C@H](/C=C/C(C)(C)[C@]1(O)O2)O4)O3` [Bryostatin_1] (top concentration 100 nM) were, in that order, 15.6, -7.12 and 1.68.
For the compound `COc1c(OCCCN2CCOCC2)ccc2c1N=C(NC(=O)c1cnc(N)nc1)N1CCN=C21` [Copanlisib] (top concentration 1000 nM), the “selective drug sensitivity score” value was -2.12 in the experiment with SUP-B15, 14.4 in the experiment with 380 and -0.42 in the experiment with P12-ICHIKAWA.
The like results for `CO[C@H]1CC[C@H](N2C(=O)CNc3ncc(-c4ccc(C(C)(C)O)nc4)nc32)CC1` [CC-223] (top concentration 10000 nM) were, in that order, -1.38, 13 and 1.92.
`CC#CC(=O)N1CC[C@@H](n2c(=O)n(-c3ccc(Oc4ccccc4)cc3)c3c(N)ncnc32)C1` [Tirabrutinib] (top concentration 1000 nM): the “selective drug sensitivity score” value with SUP-B15 is 14.7; with 380 it was 1.2; with P12-ICHIKAWA, 0.
With `COc1ccc(CCc2nc3cc(-c4c(C)noc4C)ccc3n2C[C@H](C)N2CCOCC2)cc1Cl` [SGC-CBP30] (top concentration 25000 nM), the “selective drug sensitivity score” value in the experiment with SUP-B15 was 6.28; with 380 it was 0.38; with P12-ICHIKAWA it was 1.68.
